Laboratory results reported in patent US9180118B2, “Thiadiazolidinone derivatives” (University of Rochester, priority 2006, dated 2015).

Columns and labels:
[1] = tested on: pro-caspases 3, 8 or PARP; test: Immunoblot for caspase-dependent apoptotic events; format: cell-based, human; details: TDZD-8 treated cells, data not shown
Description: Immunoblots. Cells were prepared and analyzed as previously described.^35 Membrane fractions were prepared using mem-PER eukaryotic membrane protein extraction kit as per manufacturer's instructions (Pierce; Rockford, Ill.). Blots were probed with phospho-PKC (pan) (beta II; Ser660), phospho-PKCalpha/betaII (Thr638/641), total PKCα, PKCβ and FLT3 (Santa Cruz Biotechnology, Calif.), Caspase-3 (Cell Signaling technologies; Danvers, Mass.); caspase-8 and PARP (BD bioscience), cleaved PARP (abcam) or anti-actin (AC-15; Sigma) antibodies.

CK-II = CK-II (Homo sapiens, UniProt P68400); details: reported; cited from earlier work
[2] = tested on: primary AML, ALL and CLL specimens; test: Free thiol analysis by mBBr labeling, leukemia specimens; format: cell-based, human; details: 20 μM TDZD-8, as early as 30 minutes after exposure
Description: C. […] Intracellular thiol levels were assessed by flow cytometry after labeling with 50 μM monobromobimane (molecular probes).

PRKCB2 (PKC beta II) = PRKCB2 (PKC beta II) (Homo sapiens, UniProt P05771); test: Kinase assay; format: biochemical
Description: (§1) Kinase Assays: Single point and titration assays are performed using protocols (or essentially using protocols) know in the art for kinase activity profiling against a battery of kinase targets, including, for example, those specifically delineated herein. Such assays include, for example, those available from commercial sources, contract research laboratories, and the like.

KIT = KIT (Homo sapiens, UniProt P10721); test: Kinase assay; format: biochemical
Description: as §1

MAP2K1 (MEK1) = MAP2K1 (MEK1) (Homo sapiens, UniProt Q02750); test: Kinase assay; format: biochemical
Description: as §1

RPS6KA3 (RSK2) = RPS6KA3 (RSK2) (Homo sapiens, UniProt P51812); test: Kinase assay; format: biochemical
Description: as §1

CHEK1 (CHK1) = CHEK1 (CHK1) (Homo sapiens, UniProt O14757); test: Kinase assay; format: biochemical
Description: as §1

RET = RET (Homo sapiens, UniProt P07949); test: Kinase assay; format: biochemical
Description: as §1

PRKCE (PKC epsilon) = PRKCE (PKC epsilon) (Homo sapiens, UniProt Q02156); test: Kinase assay; format: biochemical
Description: as §1

MET (cMet) = MET (cMet) (Homo sapiens, UniProt P08581); test: Kinase assay; format: biochemical
Description: as §1

MAPK3 (ERK1) = MAPK3 (ERK1) (Homo sapiens, UniProt P27361); test: Kinase assay; format: biochemical
Description: as §1

MAPKAPK2 = MAPKAPK2 (Homo sapiens, UniProt P49137); test: Kinase assay; format: biochemical
Description: as §1

Jak2 = Jak2 (Homo sapiens, UniProt O60674); test: Kinase assay; format: biochemical; details: TDZD-8 20 μM
Description: as §1

PHKG2 = PHKG2 (Homo sapiens, UniProt P15735); test: Kinase assay; format: biochemical
Description: as §1

PRKCQ (PKC theta) = PRKCQ (PKC theta) (Homo sapiens, UniProt Q04759); test: Kinase assay; format: biochemical
Description: as §1

KDR (VEGFR2) = KDR (VEGFR2) (Homo sapiens, UniProt P35968); test: Kinase assay; format: biochemical
Description: as §1

LCK = LCK (Homo sapiens, UniProt P06239); test: Kinase assay; format: biochemical
Description: as §1

PRKCG (PKC gamma) = PRKCG (PKC gamma) (Homo sapiens, UniProt P05129); test: Kinase assay; format: biochemical
Description: as §1

SYK = SYK (Homo sapiens, UniProt P43405); test: Kinase assay; format: biochemical
Description: as §1

MAP4K4 (HGK) = MAP4K4 (HGK) (Homo sapiens, UniProt O95819); test: Kinase assay; format: biochemical
Description: as §1

PRKCZ (PKC zeta) = PRKCZ (PKC zeta) (Homo sapiens, UniProt Q05513); test: Kinase assay; format: biochemical
Description: as §1

TEK (Tie2) = TEK (Tie2) (Homo sapiens, UniProt Q02763); test: Kinase assay; format: biochemical
Description: as §1

ROCK1 = ROCK1 (Homo sapiens, UniProt Q13464); test: Kinase assay; format: biochemical
Description: as §1

primary ALL specimens = test: Viability of primary ALL specimens, Annexin V/7-AAD; format: cell-based; details: Homo sapiens, 24 h; read-out: mean viability relative to untreated controls
CD34+CD38− bcCML cells = format: cell-based; details: Homo sapiens, 24 h
[3] = tested on: primary blast crisis CML (bcCML) specimens; test: Viability of primary bcCML specimens, Annexin V/7-AAD; format: cell-based; details: Homo sapiens, 24 h; read-out: mean viability relative to untreated controls
normal progenitor cells = test: Methylcellulose colony assay, normal specimens; format: cell-based, human; details: 20 μM TDZD-8, 18 hours before plating, n=12
Description: Cells were then plated at 50,000 cells/ml in Methocult™ GF H4534 (1% methylcellulose in IMDM, 30% FBS, 1% BSA, 10^−4M 2-mercaptoethanol, 2 mM L-glutamine, 50 ng/ml rh stem cell factor, 10 ng/ml rh GM-CSF, 10 ng/ml rh IL-3-Stem Cell Technologies, Vancouver, B.C.) supplemented with 3 units/ml of erythropoietin and 50 ng/ml G-CSF (R&D Systems, Minneapolis, Minn.). Colonies were scored after 10-14 days of culture.

PICA = PICA (Homo sapiens, UniProt P17612); details: reported; cited from earlier work

TEK (Tie2), sequence (Q02763 23-1124, species assumed): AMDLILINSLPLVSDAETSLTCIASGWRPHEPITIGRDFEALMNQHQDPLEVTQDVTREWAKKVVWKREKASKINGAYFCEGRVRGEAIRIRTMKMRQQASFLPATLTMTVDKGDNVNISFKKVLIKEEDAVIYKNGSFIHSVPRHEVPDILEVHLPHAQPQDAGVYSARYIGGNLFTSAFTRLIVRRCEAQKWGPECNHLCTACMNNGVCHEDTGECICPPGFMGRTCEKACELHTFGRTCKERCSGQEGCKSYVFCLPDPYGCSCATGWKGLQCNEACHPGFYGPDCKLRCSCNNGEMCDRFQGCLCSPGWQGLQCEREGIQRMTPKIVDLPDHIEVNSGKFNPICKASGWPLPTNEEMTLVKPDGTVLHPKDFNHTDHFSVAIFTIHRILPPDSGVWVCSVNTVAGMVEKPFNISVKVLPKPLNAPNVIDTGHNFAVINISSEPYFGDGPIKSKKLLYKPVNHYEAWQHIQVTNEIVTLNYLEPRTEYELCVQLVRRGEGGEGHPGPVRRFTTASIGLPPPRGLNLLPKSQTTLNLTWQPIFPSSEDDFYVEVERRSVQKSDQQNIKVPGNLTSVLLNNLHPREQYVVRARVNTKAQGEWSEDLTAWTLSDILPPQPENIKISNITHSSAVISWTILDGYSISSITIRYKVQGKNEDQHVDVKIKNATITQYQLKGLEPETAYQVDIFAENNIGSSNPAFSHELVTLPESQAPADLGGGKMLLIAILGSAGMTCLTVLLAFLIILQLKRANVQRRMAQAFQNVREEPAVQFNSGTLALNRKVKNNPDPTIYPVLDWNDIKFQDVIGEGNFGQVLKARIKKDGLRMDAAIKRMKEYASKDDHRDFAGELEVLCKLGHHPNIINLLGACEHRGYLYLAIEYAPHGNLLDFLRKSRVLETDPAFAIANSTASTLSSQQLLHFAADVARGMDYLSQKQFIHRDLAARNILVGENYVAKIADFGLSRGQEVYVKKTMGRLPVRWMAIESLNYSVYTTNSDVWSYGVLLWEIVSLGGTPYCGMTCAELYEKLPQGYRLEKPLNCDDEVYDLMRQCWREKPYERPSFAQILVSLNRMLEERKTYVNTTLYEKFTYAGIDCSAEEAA
KIT, sequence (P10721 26-976): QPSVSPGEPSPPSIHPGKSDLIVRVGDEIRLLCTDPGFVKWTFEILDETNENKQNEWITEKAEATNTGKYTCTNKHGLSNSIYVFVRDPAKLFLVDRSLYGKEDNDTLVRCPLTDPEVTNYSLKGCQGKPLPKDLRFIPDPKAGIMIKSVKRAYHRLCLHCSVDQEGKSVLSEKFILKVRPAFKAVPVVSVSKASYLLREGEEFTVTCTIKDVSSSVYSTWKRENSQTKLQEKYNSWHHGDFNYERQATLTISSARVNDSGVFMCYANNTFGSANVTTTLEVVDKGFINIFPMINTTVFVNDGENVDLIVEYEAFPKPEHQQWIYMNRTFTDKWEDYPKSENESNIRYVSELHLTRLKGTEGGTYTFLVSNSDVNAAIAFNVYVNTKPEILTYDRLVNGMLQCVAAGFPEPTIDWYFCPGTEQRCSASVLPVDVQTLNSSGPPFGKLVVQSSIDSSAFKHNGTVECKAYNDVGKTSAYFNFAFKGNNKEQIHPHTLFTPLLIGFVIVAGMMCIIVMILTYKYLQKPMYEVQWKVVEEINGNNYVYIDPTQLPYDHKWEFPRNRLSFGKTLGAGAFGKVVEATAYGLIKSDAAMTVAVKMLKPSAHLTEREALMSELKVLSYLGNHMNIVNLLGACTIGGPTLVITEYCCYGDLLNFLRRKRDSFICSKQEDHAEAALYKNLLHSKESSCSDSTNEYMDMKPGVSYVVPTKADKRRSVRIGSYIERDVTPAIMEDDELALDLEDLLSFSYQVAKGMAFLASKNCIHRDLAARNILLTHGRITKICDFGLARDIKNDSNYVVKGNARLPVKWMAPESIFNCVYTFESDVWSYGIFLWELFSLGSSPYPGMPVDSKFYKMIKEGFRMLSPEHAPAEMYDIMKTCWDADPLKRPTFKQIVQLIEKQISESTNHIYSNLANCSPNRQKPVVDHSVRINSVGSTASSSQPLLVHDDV
PRKCZ (PKC zeta), sequence (Q05513 whole entry): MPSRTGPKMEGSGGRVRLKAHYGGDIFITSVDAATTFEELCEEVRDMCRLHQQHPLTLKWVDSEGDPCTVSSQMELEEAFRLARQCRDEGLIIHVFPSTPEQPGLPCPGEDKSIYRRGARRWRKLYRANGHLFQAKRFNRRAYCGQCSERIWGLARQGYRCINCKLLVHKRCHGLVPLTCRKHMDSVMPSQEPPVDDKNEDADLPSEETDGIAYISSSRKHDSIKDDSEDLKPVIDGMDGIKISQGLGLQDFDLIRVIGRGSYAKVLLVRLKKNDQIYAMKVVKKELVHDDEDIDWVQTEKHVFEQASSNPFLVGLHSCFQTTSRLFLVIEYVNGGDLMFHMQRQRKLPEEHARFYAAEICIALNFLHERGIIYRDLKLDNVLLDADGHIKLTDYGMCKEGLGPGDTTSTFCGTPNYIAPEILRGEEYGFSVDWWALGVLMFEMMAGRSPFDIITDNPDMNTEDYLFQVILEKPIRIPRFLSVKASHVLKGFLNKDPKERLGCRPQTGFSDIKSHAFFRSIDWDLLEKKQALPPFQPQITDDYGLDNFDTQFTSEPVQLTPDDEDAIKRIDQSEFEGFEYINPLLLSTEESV
LCK, sequence (P06239 whole entry): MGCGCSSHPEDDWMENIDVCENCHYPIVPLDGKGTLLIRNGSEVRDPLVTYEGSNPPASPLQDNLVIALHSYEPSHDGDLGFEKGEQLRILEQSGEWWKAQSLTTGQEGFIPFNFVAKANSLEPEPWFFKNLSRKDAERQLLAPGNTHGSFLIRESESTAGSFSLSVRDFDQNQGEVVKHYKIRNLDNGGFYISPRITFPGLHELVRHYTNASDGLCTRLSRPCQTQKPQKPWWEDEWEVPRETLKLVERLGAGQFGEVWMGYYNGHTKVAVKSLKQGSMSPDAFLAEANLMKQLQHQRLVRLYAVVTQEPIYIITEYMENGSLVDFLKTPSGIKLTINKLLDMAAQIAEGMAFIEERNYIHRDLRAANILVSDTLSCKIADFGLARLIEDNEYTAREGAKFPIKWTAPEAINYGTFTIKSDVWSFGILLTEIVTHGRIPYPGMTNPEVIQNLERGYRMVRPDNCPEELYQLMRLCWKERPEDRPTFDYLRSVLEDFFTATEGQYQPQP
PHKG2, sequence (P15735 whole entry): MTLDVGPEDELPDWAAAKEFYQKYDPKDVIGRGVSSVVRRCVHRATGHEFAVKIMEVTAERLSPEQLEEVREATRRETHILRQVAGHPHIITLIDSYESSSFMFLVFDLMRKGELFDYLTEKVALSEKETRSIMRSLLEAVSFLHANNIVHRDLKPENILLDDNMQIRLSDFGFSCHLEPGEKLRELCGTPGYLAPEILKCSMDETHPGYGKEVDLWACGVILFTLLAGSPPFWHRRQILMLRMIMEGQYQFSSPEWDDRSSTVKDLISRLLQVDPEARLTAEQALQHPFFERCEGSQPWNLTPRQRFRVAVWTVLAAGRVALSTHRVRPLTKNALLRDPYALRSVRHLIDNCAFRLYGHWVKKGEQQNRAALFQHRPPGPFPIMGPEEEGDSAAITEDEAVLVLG
PRKCB2 (PKC beta II), sequence (P05771 1-673 isoform P05771-2): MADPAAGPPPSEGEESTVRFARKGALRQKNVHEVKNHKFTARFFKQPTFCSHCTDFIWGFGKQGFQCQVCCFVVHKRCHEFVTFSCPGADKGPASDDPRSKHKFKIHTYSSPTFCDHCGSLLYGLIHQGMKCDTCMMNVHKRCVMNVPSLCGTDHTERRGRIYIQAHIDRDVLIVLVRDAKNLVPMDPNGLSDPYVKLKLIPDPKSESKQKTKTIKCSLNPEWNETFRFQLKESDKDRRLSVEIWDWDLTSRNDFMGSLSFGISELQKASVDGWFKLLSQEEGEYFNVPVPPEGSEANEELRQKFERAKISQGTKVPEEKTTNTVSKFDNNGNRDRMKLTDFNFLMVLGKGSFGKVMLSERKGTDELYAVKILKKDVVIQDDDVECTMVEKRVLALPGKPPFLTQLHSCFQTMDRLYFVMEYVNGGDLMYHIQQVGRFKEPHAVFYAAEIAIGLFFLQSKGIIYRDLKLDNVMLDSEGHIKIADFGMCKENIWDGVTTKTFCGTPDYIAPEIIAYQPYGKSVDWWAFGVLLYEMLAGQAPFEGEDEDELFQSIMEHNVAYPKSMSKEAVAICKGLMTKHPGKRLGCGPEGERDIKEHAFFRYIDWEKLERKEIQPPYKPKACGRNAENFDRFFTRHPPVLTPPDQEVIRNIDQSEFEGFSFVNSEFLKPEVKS
PRKCE (PKC epsilon), sequence (Q02156 whole entry): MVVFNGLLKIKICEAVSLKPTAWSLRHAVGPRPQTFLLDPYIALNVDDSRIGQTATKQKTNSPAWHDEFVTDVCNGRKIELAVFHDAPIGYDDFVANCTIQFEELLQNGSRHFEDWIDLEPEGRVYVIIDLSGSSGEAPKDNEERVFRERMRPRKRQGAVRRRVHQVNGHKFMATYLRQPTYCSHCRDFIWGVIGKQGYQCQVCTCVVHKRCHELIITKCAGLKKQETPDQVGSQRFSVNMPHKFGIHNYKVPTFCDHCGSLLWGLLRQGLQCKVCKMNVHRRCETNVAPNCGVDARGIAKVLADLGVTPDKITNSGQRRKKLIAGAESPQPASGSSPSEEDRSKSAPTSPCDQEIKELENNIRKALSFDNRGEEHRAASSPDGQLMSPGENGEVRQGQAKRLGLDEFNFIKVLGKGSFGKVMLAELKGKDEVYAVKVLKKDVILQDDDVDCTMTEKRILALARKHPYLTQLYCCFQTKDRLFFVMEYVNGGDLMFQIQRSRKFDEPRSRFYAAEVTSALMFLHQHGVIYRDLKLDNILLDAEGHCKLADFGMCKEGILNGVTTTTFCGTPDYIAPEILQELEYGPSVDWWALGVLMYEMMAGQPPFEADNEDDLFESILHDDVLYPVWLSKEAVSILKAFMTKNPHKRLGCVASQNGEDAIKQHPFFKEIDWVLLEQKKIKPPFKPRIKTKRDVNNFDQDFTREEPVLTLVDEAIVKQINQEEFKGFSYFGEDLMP

For Cn1sc(=O)n(Cc2ccccc2)c1=O [TDZD-8, 4-benzyl-2-methyl-1,2,4-thiadiazolidine-3,5-dione], the “cleavage of pro-caspases 3, 8 or PARP” value [1] is listed as “no cleavage of pro-caspases 3, 8 or PARP was detected”, the IC50 (CK-II) is listed as greater than 100 µM and the “mBBr labeling (free thiol groups)” value [2] is listed as “reduction in mBBr labeling is evident”. For the same molecule, the inhibition at 20 µM (PRKCB2 (PKC beta II)) was 99%, the inhibition at 20 µM (KIT) was -6% and the “% Inhibition mean” value (KIT; TDZD-8 20 μM) was “little to no inhibition”. For the same molecule, the inhibition at 20 µM (MAP2K1 (MEK1)) was 80%, the inhibition at 20 µM (RPS6KA3 (RSK2)) was 101% and the inhibition at 20 µM (CHEK1 (CHK1)) was 87%. The inhibition at 20 µM (RET) was 34%, the inhibition at 20 µM (PRKCE (PKC epsilon)) was 99% and the inhibition at 20 µM (MET (cMet)) was 90%. The inhibition at 20 µM (MAPK3 (ERK1)) was 61%, the inhibition at 20 µM (MAPKAPK2) was 99% and the inhibition (Jak2) was “little to no inhibition”. The inhibition at 20 µM (PHKG2) was 80%, the inhibition at 20 µM (PRKCQ (PKC theta)) was 101% and the inhibition at 20 µM (KDR (VEGFR2)) was 100%. The inhibition at 20 µM (LCK) was -9%, the inhibition at 20 µM (PRKCG (PKC gamma)) was 103% and the inhibition at 20 µM (SYK) was 99%. The inhibition at 20 µM (MAP4K4 (HGK)) was 99%, the inhibition at 20 µM (PRKCZ (PKC zeta)) was 100% and the inhibition at 20 µM (TEK (Tie2)) was 9%. The “% Inhibition mean” value (TEK (Tie2); TDZD-8 20 μM) was “little to no inhibition”, the inhibition at 20 µM (ROCK1) was 113% and the viability at 20 µM (primary ALL specimens) was 12.4%. For the same molecule, the viability at 20 µM (CD34+CD38− bcCML cells) was 2.8%, the viability at 20 µM [3] was 21.6% and the “erythroid colonies, normalized to untreated controls” value (normal progenitor cells) was 94.79%. The “myeloid colonies, normalized to untreated controls” value (normal progenitor cells) was 84.14% and the IC50 (PICA) was greater than 100 µM.
